For the experiment, the system named is omental vessels of the rat. The experiment in a line: Vascular leakage after intravenous bolus of marinobufagenin (FIG. 1), fluorescein-tagged albumin videomicroscopy. The experiment is classed as in vivo. The conditions noted are these: bolus of 200 nM marinobufagenin injected intravenously, time increments vs control (Con). The method, then: FIG. 1 illustrates increasing vascular leakage at time increments from 5 seconds to 50 seconds with Con being the control group.
A bolus of 200 nM marinobufagenin was injected intravenously.
In the experimental procedure, single venules were visualized by way of a videomicroscopic technique, which permits viewing blood flow directly. The rats were injected with albumin that had been tagged with fluorescein dye. The distribution of the albumin in the omental vessels of the rat was then observed with a computer being employed to repeatedly measure the dye in the blood vessel and in the interstitium next to the blood vessel, as well as a remote site, which would serve as the control.

Regarding `C[C@]12CC[C@H](O)C[C@@]1(O)CC[C@@H]1[C@@H]2CC[C@]2(C)[C@@H](c3ccc(=O)oc3)C[C@H]3O[C@]132` [marinobufagenin], the “vascular leakage (dye monitored within the extravascular space)” value is on record as “progressive, large leakage”.

The record behind these values is US20080299602A1, “Methods of Employing Vascular Leakage to Diagnose a Capillary Leak Disorder” (priority 2007, published 2008).
